Laboratory results from ChEMBL document CHEMBL5143579, “Aulosirazoles B and C from the Cyanobacterium Nostoc sp. UIC 10771: Analogues of an Isothiazolonaphthoquinone Scaffold that Activate Nuclear Transcription Factor FOXO3a in Ovarian Cancer Cells” (J Nat Prod, 2022).
pIC50: −log10 of the molar value. Blank lines part the entries; values can stand above or below the compound they belong to. The source made the active and inactive calls. The rule behind the calls is not given here.

What was measured:
[1] = biological target: Forkhead box protein O3 (Homo sapiens) (UniProt O43524); assay: Transactivation of FOXO3a in human OVACAR-3 cells assessed as decrease in cytosolic concentration of FOXO3a at 1 uM for 3 hrs by western blot analysis; assay type: cell-based; details: OVCAR-3, filed as activator
Forkhead box protein O3 (Homo sapiens), sequence (O43524 whole entry): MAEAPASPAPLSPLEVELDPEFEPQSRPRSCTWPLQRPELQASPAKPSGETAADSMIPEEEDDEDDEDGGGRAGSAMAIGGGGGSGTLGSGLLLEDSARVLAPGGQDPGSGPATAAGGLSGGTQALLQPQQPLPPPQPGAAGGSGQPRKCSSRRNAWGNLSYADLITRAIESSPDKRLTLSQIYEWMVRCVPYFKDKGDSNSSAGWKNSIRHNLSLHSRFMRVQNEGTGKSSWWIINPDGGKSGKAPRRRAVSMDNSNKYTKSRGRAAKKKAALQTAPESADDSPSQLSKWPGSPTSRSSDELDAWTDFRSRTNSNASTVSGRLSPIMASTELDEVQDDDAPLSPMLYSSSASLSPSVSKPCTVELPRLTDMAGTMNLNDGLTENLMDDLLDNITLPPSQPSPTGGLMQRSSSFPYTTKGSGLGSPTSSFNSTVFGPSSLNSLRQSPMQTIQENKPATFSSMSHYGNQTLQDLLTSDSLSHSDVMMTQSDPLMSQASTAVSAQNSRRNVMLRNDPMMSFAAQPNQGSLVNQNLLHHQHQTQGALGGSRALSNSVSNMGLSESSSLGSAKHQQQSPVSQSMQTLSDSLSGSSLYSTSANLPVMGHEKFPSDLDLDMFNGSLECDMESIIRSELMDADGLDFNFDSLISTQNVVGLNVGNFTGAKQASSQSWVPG

[2] = biological target: Forkhead box protein O3 (Homo sapiens) (UniProt O43524); assay: Activation of FOXO3a in human OVACAR-3 cells assessed as increase in nuclear accumulation of FOXO3a at 1 uM incubated for 3 hrs by DAPI staining based immunofluorescence assay; assay type: cell-based; details: OVCAR-3, filed as activator
[3] = biological target: Forkhead box protein O3 (Homo sapiens) (UniProt O43524); assay: Activation of FOXO3a in human OVACAR-3 cells assessed as decrease in cytosolic localization of FOXO3a at 1 uM incubated for 3 hrs by DAPI staining based immunofluorescence assay; assay type: cell-based; details: OVCAR-3, filed as activator
OVCAR-3 = assay: Cytotoxicity against human OVCAR-3 cells assessed as inhibition of cell growth incubated for 72 hrs by CellTiter-Blue cell viability assay; assay type: functional, cell-based; details: OVCAR-3, 72 h
[4] = biological target: Forkhead box protein O3 (Homo sapiens) (UniProt O43524); assay: Transactivation of FOXO3a in human OVACAR-3 cells assessed as increase in nuclear accumulation of FOXO3a at 1 uM incubated for 24 hrs by western blot analysis; assay type: cell-based; details: OVCAR-3, filed as activator
[5] = biological target: Forkhead box protein O3 (Homo sapiens) (UniProt O43524); assay: Transactivation of FOXO3a in human OVACAR-3 cells assessed as nuclear accumulation of FOXO3a at 2 uM incubated for 3 hrs by western blot analysis; assay type: cell-based; details: OVCAR-3, filed as activator
[6] = biological target: Forkhead box protein O3 (Homo sapiens) (UniProt O43524); assay: Activation of FOXO3a in human OVACAR-3 cells assessed as cytosolic localization of FOXO3a at 2 uM incubated for 3 hrs by DAPI staining based immunofluorescence assay; assay type: cell-based; details: OVCAR-3, filed as activator
[7] = biological target: Forkhead box protein O3 (Homo sapiens) (UniProt O43524); assay: Activation of FOXO3a in human OVACAR-3 cells assessed as nuclear accumulation of FOXO3a at 2 uM incubated for 3 hrs by DAPI staining based immunofluorescence assay; assay type: cell-based; details: OVCAR-3, filed as activator

Activity [1]: Active
Activity [2]: Active
Activity [3]: Active
Activity [4]: Active
SMILES: COc1nsc2c1C(=O)c1c(O)cccc1C2=O
pIC50 (OVCAR-3): 6.52

Activity [5]: Active
Activity [6]: Active
Activity [7]: Active
SMILES: O=c1cc(N2CCOCC2)oc2c(-c3ccccc3)cccc12 [LY-294002]
pIC50 (OVCAR-3): 5.04

SMILES: COc1nsc2c1C(=O)c1c(O)ccc(C(=O)O)c1C2=O
pIC50 (OVCAR-3): 5.52

SMILES: COc1nsc2c1C(=O)c1ccccc1C2=O
pIC50 (OVCAR-3): 6.22
